In BindingDB's records for doi:10.1124/jpet.106.102897 (University of Kansas, 2006):
pKi: −log10 of the molar value. Values joined by “and” are separate entries in the source; they are usually repeats but may differ in a detail not shown here. Equal values may be shown once.

Columns and labels:
Histamine H1 receptor [1] = target: Histamine H1 receptor (Cavia porcellus, UniProt P31389)
Histamine H1 receptor [2] = target: Histamine H1 receptor (Homo sapiens, UniProt P35367)
Sequence of Histamine H1 receptor (Homo sapiens, UniProt P35367) (P35367 whole entry): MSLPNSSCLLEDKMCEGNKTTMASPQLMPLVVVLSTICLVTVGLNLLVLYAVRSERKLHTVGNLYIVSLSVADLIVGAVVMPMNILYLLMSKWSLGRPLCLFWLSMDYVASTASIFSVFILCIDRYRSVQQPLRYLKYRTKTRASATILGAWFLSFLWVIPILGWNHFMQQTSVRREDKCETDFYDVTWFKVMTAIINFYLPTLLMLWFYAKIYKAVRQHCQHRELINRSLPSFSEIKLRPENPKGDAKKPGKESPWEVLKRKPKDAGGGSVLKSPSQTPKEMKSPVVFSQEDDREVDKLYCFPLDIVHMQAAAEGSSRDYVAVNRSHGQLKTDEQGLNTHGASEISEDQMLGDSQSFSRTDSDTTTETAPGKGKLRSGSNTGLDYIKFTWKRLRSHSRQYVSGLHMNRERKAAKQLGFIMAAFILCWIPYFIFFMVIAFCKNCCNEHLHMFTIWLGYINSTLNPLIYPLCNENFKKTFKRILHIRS

Sequence of Histamine H1 receptor (Cavia porcellus, UniProt P31389) (P31389 whole entry): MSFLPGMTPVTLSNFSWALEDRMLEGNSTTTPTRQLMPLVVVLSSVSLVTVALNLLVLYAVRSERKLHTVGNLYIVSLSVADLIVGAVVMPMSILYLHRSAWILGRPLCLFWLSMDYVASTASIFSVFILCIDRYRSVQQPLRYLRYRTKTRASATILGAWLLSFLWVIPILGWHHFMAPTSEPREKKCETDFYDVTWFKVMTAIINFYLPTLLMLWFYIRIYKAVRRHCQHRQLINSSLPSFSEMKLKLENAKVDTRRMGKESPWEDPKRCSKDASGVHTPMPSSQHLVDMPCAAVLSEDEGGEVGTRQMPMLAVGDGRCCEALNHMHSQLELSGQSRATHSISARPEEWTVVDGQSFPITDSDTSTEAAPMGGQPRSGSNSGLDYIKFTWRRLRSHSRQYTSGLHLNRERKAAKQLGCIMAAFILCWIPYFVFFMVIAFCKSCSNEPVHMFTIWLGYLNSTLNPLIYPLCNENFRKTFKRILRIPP

| SMILES | pKi (Histamine H1 receptor [1]) | pKi (Histamine H1 receptor [2]) |
| --- | --- | --- |
| CC(CC(=O)NC(N)=NCCCc1cnc[nH]1)C1CCCCC1 (configuration not stated) [UR-AK24] | 5.59 and 5.80 | – |
| CC(C(=O)NC(N)=NCCCc1cnc[nH]1)C1CCCCC1 (configuration not stated) [UR-AK59] | 4.96 | 5.22 and 5.64 |
| CC(C(=O)NC(N)=NCCCc1cnc[nH]1)c1ccccc1 (configuration not stated) [UR-AK68] | – | 5.46 |

Other lines, results leading:

| pKi (Histamine H1 receptor [1]) | pKi (Histamine H1 receptor [2]) | SMILES |
| --- | --- | --- |
| 6.36 | 5.54 | N=C(NCCCc1c[nH]cn1)NC(=O)CCCCc1ccccc1 [UR-AK22] |
| 5.33 | 5.15 | NC(=NCCCc1cnc[nH]1)NC(=O)CC1CCCCC1 [UR-AK62] |
| 6.46 | 6.00 | N=C(NCCCc1c[nH]cn1)NC(=O)CCCC1CCCCC1 [UR-AK64] |
| 5.66 | 4.85 | N=C(NCCCc1c[nH]cn1)NC(=O)CCCc1ccccc1 [UR-AK67] |
